Data taken from paper PMC11052077, “Discovery of Dolutegravir Derivative against Liver Cancer via Inducing Autophagy and DNA Damage” (Molecules, 2024).
Read-outs that look alike come from different tables or passages of the source.

What was measured:
[1] = dose 27 times greater than the clinical dose, preclinical study; cited from earlier work
in vitro = type: cell-based, human; details: human
Method: (§1) This study aimed to assess the anti-proliferative activity of dolutegravir-1,2,3-triazole derivatives on hepatocellular carcinoma cell lines, Huh7 and hepG2. A comprehensive CCK8 assay was employed to evaluate the impact of these compounds on cell viability, with cells treated at a concentration of 20 μM for 48 h. HRM cells, a normal cell line, were included as a control for comparative analysis. […]
(§2) CCK8 assay was used to measure cell viability. Cells with a density of 1 × 10^4 cells/well were seeded on 96-well plates. After adhesion, cells were treated with different diluted compounds or vehicle control DMSO and continued to be cultured for 48 h or 72 h, respectively. Then, CCK8 reagent was added for one hour incubation at 37 °C with 5% CO2. Absorbance was measured using a Microplate spectrophotometer (Thermo, Waltham, MA, USA) at 450 nm. The ratio of cell viability of control was taken as 100%. […] Then, IC50 of compounds were investigated using the prism statistical software 7.0.

Huh7 cells = test: CCK8 cell viability assay, Huh7; type: cell-based, human; details: for IC50: Huh7, CCK8, read-out: half maximal inhibitory concentration (IC50), Huh7
Method: (§3) This study aimed to assess the anti-proliferative activity of dolutegravir-1,2,3-triazole derivatives on hepatocellular carcinoma cell lines, Huh7 and hepG2. A comprehensive CCK8 assay was employed to evaluate the impact of these compounds on cell viability, with cells treated at a concentration of 20 μM for 48 h. HRM cells, a normal cell line, were included as a control for comparative analysis.
(§4) Human hepatocellular carcinoma cell lines Huh7 and hepG2 were obtained from ATCC (Manassas, VA, USA). Cells were cultured in DMEM or RPMI 1640 medium containing 10% FBS and 1% penicillin/streptomycin at 37 °C with a 5% CO2-humidified atmosphere.
as §2

hepG2 cells = test: CCK8 cell viability assay, hepG2; type: cell-based, human
Method: as §3, §4, §2

[2] = tested on: HRM cells (human renal mesangial cells); test: in vitro; type: cell-based; details: 20 µM
Method: as §1, §2

[3] = 20 μM, Huh7, CCK8, control taken as 100%
[4] = 20 μM, hepG2, CCK8, control taken as 100%
[5] = 48 h, hepG2, CCK8, read-out: half maximal inhibitory concentration (IC50), hepG2

Row | SMILES | fertility and teratogenic toxicity [1] | viability at 48 h, 20 µM (in vitro) [%] | viability at 20 µM (Huh7 cells; Homo sapiens, Huh-7, 20 μM, 48 h, Huh7, CCK8, control taken as 100%) [%] | IC50 (Huh7 cells; Homo sapiens, Huh-7, 48 h) [µM] | IC50 (hepG2 cells; Homo sapiens, HepG2, 48 h, hepG2, CCK8, read-out: half maximal inhibitory concentration (IC50), hepG2) [µM] | viability at 20 µM (hepG2 cells; Homo sapiens, 20 μM, 48 h, hepG2, CCK8, control taken as 100%) [%] | Cell Viability (100%), 20 μM, 48 h, HRM [2] [%] | Cell Viability (100%), 20 μM, 48 h, Huh7 (Huh7 cells; [3]) [%] | IC50 (Huh7 cells; 48 h) [µM] | Cell Viability (100%), 20 μM, 48 h, hepG2 (hepG2 cells; [4]) [%] | IC50 (hepG2 cells; [5]) [µM]
1 | C[C@@H]1CCO[C@H]2Cn3cc(C(=O)NCc4ccc(F)cc4F)c(=O)c(O)c3C(=O)N12 [DTG, Dolutegravir] | no obvious fertility toxicity or teratogenic toxicity | 99.6 | 96.9 | > 50 | > 50 | 82.6 |  |  |  |  | 
2 | COc1cccc(-n2cc(-c3cccc(NC(=O)c4cn5c(c(OC)c4=O)C(=O)N4C(C)CCOC4C5)c3)nn2)c1 (centres unmarked) [Compound 5l] |  |  |  |  |  |  | 94.97 | 46.30 | 7.62 ± 1.03 | 33.91 | 10.6 ± 0.67
3 | CCc1ccccc1-n1cc(-c2cccc(NC(=O)c3cn4c(c(OC)c3=O)C(=O)N3C(C)CCOC3C4)c2)nn1 (centres unmarked) [Compound 5k] |  |  |  |  |  |  | 0.81 | 48.55 | 16.9 ± 0.48 | 50.62 | 15.2 ± 1.15
4 | COc1c2n(cc(C(=O)Nc3cccc(-c4cn(-c5cccc(C)c5)nn4)c3)c1=O)CC1OCCC(C)N1C2=O (centres unmarked) [Compound 5f] |  |  |  |  |  |  | 66.43 | 15.92 | 8.63 ± 0.33 | 12.96 | 12.1 ± 0.77
5 | CCOc1ccc(-n2cc(-c3cccc(NC(=O)c4cn5c(c(OC)c4=O)C(=O)N4C(C)CCOC4C5)c3)nn2)cc1 (centres unmarked) [Compound 5h] |  |  |  |  |  |  | 102.23 | 72.06 |  | 90.41 | 
6 | COc1c2n(cc(C(=O)Nc3cccc(-c4cn(-c5ccc(C)cc5)nn4)c3)c1=O)CC1OCCC(C)N1C2=O (centres unmarked) [Compound 5y] |  |  |  |  |  |  | 103.82 | 79.52 |  | 69.40 | 
7 | COc1c2n(cc(C(=O)Nc3cccc(-c4cn(Cc5ccccc5C(F)(F)F)nn4)c3)c1=O)CC1OCCC(C)N1C2=O (centres unmarked) [Compound 6h] |  |  |  |  |  |  | 93.73 | 50.37 |  | 66.45 | 
8 | COc1ccccc1-n1cc(-c2cccc(NC(=O)c3cn4c(c(OC)c3=O)C(=O)N3C(C)CCOC3C4)c2)nn1 (centres unmarked) [Compound 5t] |  |  |  |  |  |  | 73.24 | 29.33 | 10.8 ± 0.85 | 41.93 | 11.2 ± 0.32
9 | COc1c2n(cc(C(=O)Nc3cccc(-c4cn(-c5c(C)cc(C)cc5C)nn4)c3)c1=O)CC1OCCC(C)N1C2=O (centres unmarked) [Compound 5z] |  |  |  |  |  |  | 100.35 | 66.22 |  | 63.22 | 
